The values that follow are results of earlier work, collected in Sander's compilation of Henry's law constants.

Structures are written as SMILES.

The nature of the data set: Henry solubility constant Hcp at 298.15 K (mol/(m3 Pa)). The settings on record: cited value.
Setting [1] is: reference: Barcelo and Hennion (1997).
Setting [2] is: reference: Meylan and Howard (1991).
Where [3] appears, read: reference: Gaffney and Senum (1984).
[4] abbreviates: reference: Fogg and Sangster (2003).
The mark [5] stands for this setting: reference: Sander et al. (2011).
Setting [6] is: reference: Meynier et al. (2003).
[7] abbreviates: reference: Burkholder et al. (2015).
[8] abbreviates: reference: Burkholder et al. (2019).
Where [9] appears, read: reference: Sander et al. (2006).

Take `ClC1=C(Cl)C2(Cl)C3C(Cl)C=CC3C1(Cl)C2(Cl)Cl` (centres undefined) [heptachlor]: the “Henry solubility constant Hcp” value was 8.8e-05 under setting [1], 0.0043 (reference: McCarty (1980)) and 0.0067 under setting [2].

Take `ClC1C(Cl)C(Cl)C(Cl)C(Cl)C1Cl` (stereo not drawn) [β-1,2,3,4,5,6-hexachlorocyclohexane]: the “Henry solubility constant Hcp” value (reference: Xiao et al. (2004)) is 27.

`O=[N+]([O-])c1cccc(O)c1` [3-nitrophenol]: under setting [3], the “Henry solubility constant Hcp” value was 4900.

As to `FC(F)OC(Cl)C(F)(F)F` (centres undefined) [1-chloro-2,2,2-trifluoroethyl difluoromethyl ether], the “Henry solubility constant Hcp” value under setting [4] is 0.00024.

As to `c1ccc2c(c1)cc1ccc3cccc4ccc2c1c34` [benzo[a]pyrene], the “Henry solubility constant Hcp” value reads like this: (reference: Brockbank (2013)) 4.5; (reference: Goldstein (1982)) 0.0016.

Consider `CCOC(=O)C(C)(C)C` [ethyl 2,2-dimethylpropanoate], for which the “Henry solubility constant Hcp” value (reference: Brockbank (2013)) is 0.0064.

Turning to `CCCOC(=O)CCC` [propyl butanoate], the “Henry solubility constant Hcp” value (reference: Brockbank (2013)) was 0.018.

For the compound `Clc1cc(Cl)c(-c2cc(Cl)c(Cl)cc2Cl)cc1Cl` [2,2',4,4',5,5'-hexachlorobiphenyl], the “Henry solubility constant Hcp” value (reference: Murphy et al. (1983b)) is 0.028.

Take `CCOP(=S)(OCC)SCSCC` [phorate]: the “Henry solubility constant Hcp” value under setting [1] is 0.015.

As to `CC(C)c1ccccc1` [(2-propyl)-benzene], the “Henry solubility constant Hcp” value (reference: Brockbank (2013)) was 0.0009.

Regarding `CCC(C)OC(C)=O` (centres undefined) [2-butyl ethanoate], the “Henry solubility constant Hcp” value (reference: Brockbank (2013)) is 0.023.

For `O=CC(=O)O` [oxoethanoic acid], under setting [5], the “Henry solubility constant Hcp” value was 110.

As for `CCC(C)(C)C` [2,2-dimethylbutane], the “Henry solubility constant Hcp” value (reference: Brockbank (2013)) is 5.7e-06.

Turning to `CCCCC(=O)OCC` [ethyl pentanoate], the “Henry solubility constant Hcp” value under setting [6] is 0.027.

Regarding `CC(C)Nc1nc(Cl)nc(NC(C)C)n1` [propazine], under setting [1], the “Henry solubility constant Hcp” value was 99.

As for `CCCCCCCCCCCO` [1-undecanol], for the setting “reference: Brockbank (2013)”, the “Henry solubility constant Hcp” value was 0.14.

With `Brc1ccc(Br)c(Br)c1` [1,2,4-tribromobenzene], where the note is “reference: Kuramochi et al. (2004)”, the “Henry solubility constant Hcp” value is 0.029.

Regarding `ClCC(Cl)CCl` [1,2,3-trichloropropane], the “Henry solubility constant Hcp” value is 0.033 (reference: Brockbank (2013)), 0.036 under setting [7] and 0.036 under setting [8].

`C=CCCCCCCC` [1-nonene]: under “reference: Brockbank (2013)”, the “Henry solubility constant Hcp” value was 1.1e-05.

Take `CN(C)C(=O)Nc1ccc(Cl)c(Cl)c1` [diuron]: the “Henry solubility constant Hcp” value under setting [1] was 8.2.

For the compound `CN/C(=N\[N+](=O)[O-])NCc1cnc(Cl)s1` [clothianidin], the “Henry solubility constant Hcp” value (reference: MacBean (2012b)) was 3.4e+10.

`CCSCC` [diethyl sulfide]: the “Henry solubility constant Hcp” value under setting [7] is 0.0035 and the “Henry solubility constant Hcp” value under setting [8] is 0.0035.

`CCOP(=S)(OCC)SCSP(=S)(OCC)OCC` [ethion]: the “Henry solubility constant Hcp” value under setting [1] is 0.31.

`ClC(Cl)=C(Cl)Cl` [tetrachloroethene]: the “Henry solubility constant Hcp” value (reference: Brockbank (2013)) is 0.00056; the “Henry solubility constant Hcp” value under setting [7] is 0.00055; the “Henry solubility constant Hcp” value under setting [8] was 0.00055; the “Henry solubility constant Hcp” value (reference: Dilling (1977)) is 0.00081; the “Henry solubility constant Hcp” value (reference: Dilling et al. (1975)) is 0.00081; the “Henry solubility constant Hcp” value under setting [4] was 0.0006. In addition, the “Henry solubility constant Hcp” value (reference: Goldstein (1982)) was 0.00036.

Regarding `CCCCCCI` [1-iodohexane], the “Henry solubility constant Hcp” value (reference: Brockbank (2013)) is 0.00034.

Take `OC[C@@H](O)[C@@H](O)CO` [2(R),3(S)-1,2,3,4-butanetetrol]: the “Henry solubility constant Hcp” value under setting [7] was 1.1e+10 and the “Henry solubility constant Hcp” value under setting [8] is 1.1e+10.

As for `CCCCCCCCCC=O` [decanal], the “Henry solubility constant Hcp” value (reference: Brockbank (2013)) was 0.0063.

On to `CCOC(C)(C)CC` [2-ethoxy-2-methylbutane], for which, for the setting “reference: Brockbank (2013)”, the “Henry solubility constant Hcp” value is 0.005.

Take `C1=CCC=CC1` [1,4-cyclohexadiene]: the “Henry solubility constant Hcp” value (reference: Brockbank (2013)) is 0.0013.

As for `CC(C)=O` [propanone], the “Henry solubility constant Hcp” value was 0.29 (reference: Brockbank (2013)); 0.27 under setting [7]; 0.27 under setting [8]; 0.3 (reference: Butler and Ramchandani (1935)); 0.27 (reference: Cabani et al. (1981)); 0.26 under setting [4]. Further, the “Henry solubility constant Hcp” value under setting [3] was 0.3; the “Henry solubility constant Hcp” value (reference: Hine and Weimar (1965)) is 0.031; the “Henry solubility constant Hcp” value (reference: Poulain et al. (2010)) was 0.33; the “Henry solubility constant Hcp” value under setting [9] was 0.28; the “Henry solubility constant Hcp” value under setting [5] is 0.27; the “Henry solubility constant Hcp” value (reference: Schaffer and Daubert (1969)) was 0.22.

On to `C=C(Cl)Cl` [1,1-dichloroethene], for which the “Henry solubility constant Hcp” value is 0.00031 (reference: Brockbank (2013)); 0.00037 under setting [7]; 0.00037 under setting [8]; 0.0004 under setting [4]; 0.00064 (reference: Goldstein (1982)).

Regarding `CCCCCl` [1-chlorobutane], the “Henry solubility constant Hcp” value (reference: Brockbank (2013)) was 0.00056.

In the case of `CCC(C)n1c(=O)[nH]c(C)c(Br)c1=O` (centres undefined) [bromacil], under setting [1], the “Henry solubility constant Hcp” value is 5.2.

`CC(O)CO` (centres undefined) [1,2-propanediol]: the “Henry solubility constant Hcp” value under setting [7] is 2700 and the “Henry solubility constant Hcp” value under setting [8] is 2700.

In the case of `CI` [iodomethane], the “Henry solubility constant Hcp” value is 0.002 (reference: Brockbank (2013)); 0.002 under setting [7]; 0.002 under setting [8]; 0.0017 (reference: Liss and Slater (1974)); 0.002 under setting [9]; 0.002 under setting [5].

In the case of `COc1nc(NC(C)C)nc(NC(C)C)n1` [prometone], under setting [1], the “Henry solubility constant Hcp” value was 110.

Take `CNC=O` [N-methylmethanamide]: the “Henry solubility constant Hcp” value is 1400 (reference: Brockbank (2013)), 1400 under setting [7] and 1400 under setting [8].

As to `c1ccc2c(c1)[nH]c1ccccc12` [carbazole], where the note is “reference: Brockbank (2013)”, the “Henry solubility constant Hcp” value is 94.

Take `c1ccc(Nc2ccccc2)cc1` [diphenylamine]: the “Henry solubility constant Hcp” value (reference: Howard et al. (1991)) was 3.5.

As to `O=[N+]([O-])c1ccc(Cl)cc1` [4-chloronitrobenzene], the “Henry solubility constant Hcp” value (reference: Brockbank (2013)) is 0.64.

As to `CCCCCc1ccccc1` [pentylbenzene], the “Henry solubility constant Hcp” value (reference: Brockbank (2013)) is 0.0006.

For the compound `COC(=O)c1ccccc1O` [2-hydroxybenzoic acid methyl ester], under “reference: Brockbank (2013)”, the “Henry solubility constant Hcp” value is 1.6.

For `CCCCC(O)(Cn1cncn1)c1ccc(Cl)cc1Cl` (centres undefined) [hexaconazole], the “Henry solubility constant Hcp” value under setting [1] is 28.

Consider `CC(C)(C)CO` [2,2-dimethyl-1-propanol], for which the “Henry solubility constant Hcp” value (reference: Brockbank (2013)) is 0.3.

As for `C1CCCC1` [cyclopentane], under “reference: Brockbank (2013)”, the “Henry solubility constant Hcp” value was 5.8e-05.

For `O=C1CCCCC1` [cyclohexanone], the “Henry solubility constant Hcp” value (reference: Brockbank (2013)) is 1.5.

For `Cc1c(Br)c2ccc(F)cc2n1S(=O)(=O)c1ncn(S(=O)(=O)N(C)C)n1` [amisulbrom], the “Henry solubility constant Hcp” value (reference: MacBean (2012b)) was 47.

On to `COP(=S)(OC)Oc1ccc(Sc2ccc(OP(=S)(OC)OC)cc2)cc1` [temefos], for which, under setting [1], the “Henry solubility constant Hcp” value is 1.7.

On to `CCCCCCCBr` [1-bromoheptane], for which the “Henry solubility constant Hcp” value (reference: Brockbank (2013)) is 0.00022.

In the case of `CCNc1nc(Cl)nc(NCC)n1` [simazine], under setting [1], the “Henry solubility constant Hcp” value was 29.

For `CCCC(=O)OCCC(C)C` [3-methylbutyl butanoate], the “Henry solubility constant Hcp” value (reference: Brockbank (2013)) is 0.011.

For the compound `CCOP(=S)(NC(C)C)Oc1ccccc1C(=O)OC(C)C` (centres undefined) [isofenphos], the “Henry solubility constant Hcp” value is 1000 under setting [1] and 240 (reference: MacBean (2012b)).

Turning to `CN(C)C(=O)Nc1cccc(C(F)(F)F)c1` [fluometuron], the “Henry solubility constant Hcp” value (reference: HSDB (2015)) was 3800.

In the case of `CC(C)=CC1C(C(=O)OCc2cccc(Oc3ccccc3)c2)C1(C)C` (centres undefined) [phenothrin], the “Henry solubility constant Hcp” value (reference: MacBean (2012b)) was 1.5.

On to `C=CC(C)=O` [3-buten-2-one], for which the “Henry solubility constant Hcp” value is, setting by setting: under setting [7], 0.4; under setting [8], 0.4.

Turning to `Cc1cc2ccccc2cc1C` [2,3-dimethylnaphthalene], the “Henry solubility constant Hcp” value under setting [2] was 0.011.

Take `CC(C)C(C)O` (centres undefined) [3-methyl-2-butanol]: the “Henry solubility constant Hcp” value (reference: Brockbank (2013)) is 0.51.

Consider `CON(C)C(=O)Nc1ccc(Cl)c(Cl)c1` [linuron], for which the “Henry solubility constant Hcp” value runs as follows: under setting [1], 1.8; (reference: MacBean (2012b)) 5000.

On to `CC(Cc1ccc(C(C)(C)C)cc1)CN1C[C@@H](C)O[C@@H](C)C1` (some centres undefined) [fenpropimorph], for which the “Henry solubility constant Hcp” value under setting [1] was 0.062.

Turning to `CCC/C=C/C=O` [(E)-2-hexenal], the “Henry solubility constant Hcp” value under setting [6] was 0.2.

Turning to `Nc1ccc(-c2ccc(N)cc2)cc1` [benzidine], the “Henry solubility constant Hcp” value (reference: Mackay et al. (1995)) is 25.

For `CCNc1nc(Cl)nc(NC(C)(C)C#N)n1` [cyanazine], the “Henry solubility constant Hcp” value under setting [1] was 33000.

As to `NCl` [chloramine], the “Henry solubility constant Hcp” value is 0.86 under setting [7], 0.86 under setting [8], 0.86 under setting [9] and 0.86 under setting [5].

Regarding `ClCCCCCCl` [1,5-dichloropentane], under “reference: Brockbank (2013)”, the “Henry solubility constant Hcp” value was 0.01.

Turning to `CCI` [iodoethane], the “Henry solubility constant Hcp” value by setting is: (reference: Brockbank (2013)) 0.0015; under setting [4], 0.0015.

Take `CCCC` [butane]: the “Henry solubility constant Hcp” value was 1.2e-05 under setting [7]; 1.2e-05 under setting [8]; 1.1e-05 (reference: Deno and Berkheimer (1960)); 1.2e-05 (reference: Hayduk (1986)); 1.2e-05 under setting [9]; 1.2e-05 under setting [5].
